{"source": "patent US8703764B2", "about": "“Combination therapy for dementia, depression and apathy” (priority 2003, dated 2014)", "key": {"[1]": {"tested_on": "apathy in a patient with Parkinson's disease", "assay": "Case report Example 5: severe apathy in a patient with Parkinson's disease", "assay_type": "in vivo, human", "conditions": "before admission to hospital", "excerpt": "A person retired sailor developed Parkinson's disease more than 5 years before admission to hospital. After the onset of Parkinson's disease they developed decreased motivation and decreased interest. The severity of the apathy progressed to a near total lack of initiative. A trial of methylphenidate for apathy was unsuccessful. They were admitted to hospital with anxiety, severe apathy and constipation. They were unable to function at home leading to caregiver burn out.\nCore symptoms of delirium were absent. A shuffling gait devoid of heel strike or toe push was observed. Arm swing was decreased. This person described decreased motivation in face of clear enjoyment of family visits and the sunshine outside. Their capacity for projective pleasure was preserved. They were satisfied with their accomplishments over their life. They felt their quality of life was reduced by their lack initiative. Objective mood and affect were flat. Thought form was marked by latency but progressed logically to a goal oriented conclusion. Thought content was free of delusions or hallucinations. Language was mildly impaired with paraphasic errors noted. Remote memories were difficult to recall and approximately correct. Their sense of humor and capacity for abstraction were preserved.\nThis was judged consistent with Parkinson's disease by the registered psychologist.\nThey could walk four lengths of the hallway. […]"}, "[2]": {"tested_on": "patient with depressed mood, lack of pleasure and absent initiative", "assay": "Case report Example 6: depressed mood, lack of pleasure and absent initiative in a retired nurse", "assay_type": "in vivo, human", "description": "A 75 year retired nurse lived independently in the community until 2 months prior to admission.\nMoclobemide was commenced at 200 mg. daily on day 4, increased to 300 mg. daily and day 6 and continued at 300 mg. daily.\nRisperidone was commenced at 0.5 mg daily on day 7, discontinued on day 14 then restarted at 0.5 mg daily alternating with 0.25 mg. daily and continued as such."}, "[3]": {"tested_on": "patient with early onset Alzheimer's disease", "assay": "Case report Example 4: patient with early onset Alzheimer's disease, anxiety and depressed mood", "conditions": "for adverse effect leading to discontinuation: human, in vivo"}}, "data": [{"smiles": "COC(=O)C(c1ccccc1)C1CCCCN1", "note": "(stereo not drawn) [methylphenidate]", "values": [{"measurement": "trial for apathy", "setting": "[1]", "result": "unsuccessful"}]}, {"smiles": "O=C(NCCN1CCOCC1)c1ccc(Cl)cc1", "note": "[moclobemide, p-chloro-N-(2-morpholinoethyl) benzamide]", "values": [{"measurement": "late afternoon quality of mood and mobility of affect", "setting": "[2]; by Day 6, moclobemide 200 mg daily from day 4, 300 mg daily from day 6, before risperidone", "result": "improved"}]}, {"smiles": "Cc1nc2n(c(=O)c1CCN1CCC(c3noc4cc(F)ccc34)CC1)CCCC2", "note": "[risperidone, 3-[2-[4-(6-fluoro-1,2-benzisoxazol-3-yl)piperidino]ethyl]-2-methyl-6,7,8,9-tetrahydro-4H-pyrido-[1,2-a]pyrimidin-4-one]", "values": [{"measurement": "extrapyramidal side effects", "setting": "[2]; shortly after Day 13, risperidone 0.5 mg daily", "result": "mild extrapyramidal symptoms emerged"}, {"measurement": "adverse effect leading to discontinuation", "setting": "[3]", "result": "emergence of dystonia"}]}, {"smiles": "COc1ccc(C(CN(C)C)C2(O)CCCCC2)cc1", "note": "(stereo not drawn) [venlafaxine]", "values": [{"measurement": "adverse effect leading to discontinuation", "setting": "[3]", "result": "excessive sweating"}, {"measurement": "depressed mood", "setting": "[3]; venlafaxine 150 mg daily, donepezil 10 mg daily commenced", "result": "responded"}]}]}
